According to ChEMBL document CHEMBL4837249, “Discovery of Potent Antiallergic Agents Based on an o-Aminopyridinyl Alkynyl Scaffold” (J Med Chem, 2021):

Assays:
RBL-2H3 [1] = assay: Antiallergic activity against anti-DNP-IgE sensitized rat RBL-2H3 cells assessed as […] of degranulation by measuring beta-hexosaminidase release using P-nitrophenyl-N-acetyl-D-glucosamide as substrate at 1 uM measured after 1 hr by microplate reader relative to control; assay type: functional
RBL-2H3 [2] = assay: Antiallergic activity against anti-DNP-IgE sensitized rat RBL-2H3 cells assessed as […] of degranulation by measuring beta-hexosaminidase release using P-nitrophenyl-N-acetyl-D-glucosamide as substrate at 0.2 uM measured after 1 hr by microplate reader relative to control; assay type: functional
RBL-2H3 [3] = assay: Antiallergic activity against anti-DNP-IgE sensitized rat RBL-2H3 cells assessed as […] of degranulation by measuring beta-hexosaminidase release using P-nitrophenyl-N-acetyl-D-glucosamide as substrate measured after 1 hr by microplate reader; assay type: functional, cell-based; conditions: RBL-2H3, 1 h
[4] = Therapeutic index, ratio of CC50 for rat RBL2H3 cells to IC50 for Antiallergic activity against anti-DNP-IgE sensitized rat RBL-2H3 cells; assay type: toxicity; conditions: read-out: TI
RBL-2H3 [5] = assay: Antiallergic activity against anti-DNP-IgE sensitized rat RBL-2H3 cells assessed as […] of degranulation by measuring beta-hexosaminidase release using P-nitrophenyl-N-acetyl-D-glucosamide as substrate at 0.04 uM measured after 1 hr by microplate reader relative to control; assay type: functional
[6] = target: Macrophage colony-stimulating factor 1 receptor (Homo sapiens, UniProt P07333); assay: Inhibition of human recombinant CSF1R using ATP/Ulight-TK peptide incubated for 15 mins
Sequence of Macrophage colony-stimulating factor 1 receptor (P07333 whole entry): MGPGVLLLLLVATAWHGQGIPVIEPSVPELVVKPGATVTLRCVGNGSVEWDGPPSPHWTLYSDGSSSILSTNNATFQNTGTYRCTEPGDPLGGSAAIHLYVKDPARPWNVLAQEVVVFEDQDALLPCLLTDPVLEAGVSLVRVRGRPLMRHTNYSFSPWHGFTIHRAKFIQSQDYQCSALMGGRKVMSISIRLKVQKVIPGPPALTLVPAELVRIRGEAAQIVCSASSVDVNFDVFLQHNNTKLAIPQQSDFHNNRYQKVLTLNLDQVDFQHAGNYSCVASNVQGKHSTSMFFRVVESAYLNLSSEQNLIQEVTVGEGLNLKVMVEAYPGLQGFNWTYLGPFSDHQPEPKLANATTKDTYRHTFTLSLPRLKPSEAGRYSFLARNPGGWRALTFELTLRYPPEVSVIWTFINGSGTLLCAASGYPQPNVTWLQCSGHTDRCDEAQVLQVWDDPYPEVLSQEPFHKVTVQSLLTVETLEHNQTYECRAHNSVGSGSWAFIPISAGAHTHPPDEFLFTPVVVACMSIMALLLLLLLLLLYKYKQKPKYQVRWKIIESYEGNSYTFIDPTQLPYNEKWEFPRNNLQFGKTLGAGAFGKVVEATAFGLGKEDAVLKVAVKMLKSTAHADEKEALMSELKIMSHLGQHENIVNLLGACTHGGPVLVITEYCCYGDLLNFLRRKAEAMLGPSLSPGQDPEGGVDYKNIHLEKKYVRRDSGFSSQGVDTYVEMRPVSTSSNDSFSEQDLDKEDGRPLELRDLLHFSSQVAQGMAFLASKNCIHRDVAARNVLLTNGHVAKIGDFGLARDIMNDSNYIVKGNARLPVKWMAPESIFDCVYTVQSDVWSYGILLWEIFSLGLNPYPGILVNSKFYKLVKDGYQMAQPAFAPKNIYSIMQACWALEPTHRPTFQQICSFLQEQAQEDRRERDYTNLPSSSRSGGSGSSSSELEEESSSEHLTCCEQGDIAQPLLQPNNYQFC

IC50 [6] [nM] | Structure (SMILES) | inhibition at 1 µM (RBL-2H3 [1]) [%] | inhibition at 0.2 µM (RBL-2H3 [2]) [%] | IC50 (RBL-2H3 [3]) [nM] | selectivity ratio [4] | inhibition at 0.04 µM (RBL-2H3 [5]) [%]
– | Cc1ccc(C(=O)Nc2cccc(C(F)(F)F)c2)cc1C#Cc1cc(-c2cnn(C)c2)cnc1N | 113 | 109 | 2.75 | 2.5 | 88.9
– | CNC(=O)c1cnc(N)c(C#Cc2cc(C(=O)Nc3cc(OC)cc(OC)c3)ccc2C)c1 | 66.2 | 26.8 | – | – | 14.7
– | COc1cc(NC(=O)c2ccc(C)c(C#Cc3cc(C(N)=O)cnc3N)c2)cc(OC)c1 | 74.2 | 13.7 | – | – | 10.8
– | Cc1ccc(C(=O)Nc2ccccn2)cc1C#Cc1cc(-c2cnn(C)c2)cnc1N | 60.6 | 21.1 | – | – | 2.86
– | COc1cc(NC(=O)c2cccc(C#Cc3cc(-c4cnn(C)c4)cnc3N)c2)cc(OC)c1 | 41 | 272 | – | – | 1.08
– | Cc1ccc(C(=O)Nc2ccc(CN3CCN(C)CC3)c(C(F)(F)F)c2)cc1C#Cc1cnc2cccnn12 [PONATINIB] | – | – | 148 | – | –
– | Cc1ccc(C(=O)Nc2ccc(Cl)cc2)cc1C#Cc1cc(-c2cnn(C)c2)cnc1N | 89.5 | 68.6 | 23.9 | 11.3 | 52
– | COc1cc(NC(=O)c2ccc(F)c(C#Cc3cc(-c4cnn(C)c4)cnc3N)c2)cc(OC)c1 | 30.9 | 0.83 | – | – | 2.34
– | Cc1ccc(C(=O)Nc2cccc(Cl)c2)cc1C#Cc1cc(-c2cnn(C)c2)cnc1N | 118 | 82.9 | 6.54 | 3.8 | 49
– | COc1ccc(NC(=O)c2ccc(C)c(C#Cc3cc(-c4cnn(C)c4)cnc3N)c2)cc1 | 101 | 66.9 | 10.6 | – | 41.5
– | Cc1ccc(C(=O)Nc2ccccc2)cc1C#Cc1cc(-c2cnn(C)c2)cnc1N | 65.3 | 40.9 | – | – | 28.6
– | Cc1ccc(C(=O)Nc2ccccc2Cl)cc1C#Cc1cc(-c2cnn(C)c2)cnc1N | 25 | -5.24 | – | – | -4.58
– | COc1cc(NC(=O)c2ccc(Br)c(C#Cc3cc(-c4cnn(C)c4)cnc3N)c2)cc(OC)c1 | 79.2 | 36.6 | – | – | 22.6
– | COc1cc(NC(=O)c2ccc(C)c(C#Cc3cc(-c4cnn(C)c4)cnc3N)c2)cc(OC)c1 | 108 | 61.7 | 25.8 | 15.4 | 20.1
– | COc1cc(NC(=O)c2cccc(C#Cc3cc(-c4cnn(C)c4)cnc3N)c2C)cc(OC)c1 | 18.3 | 8.75 | – | – | 3.11
– | Cc1ccc(C(=O)Nc2ccc(C(F)(F)F)c(C(F)(F)F)c2)cc1C#Cc1cc(-c2cnn(C)c2)cnc1N | 144 | – | 58.8 | – | 40.5
– | COc1cc(NC(=O)c2ccc(C)c(C#Cc3cc(Cl)cnc3N)c2)cc(OC)c1 | 50.9 | 37 | – | – | -1.58
– | COc1cc(NC(=O)c2ccc(C(C)C)c(C#Cc3cc(-c4cnn(C)c4)cnc3N)c2)cc(OC)c1 | -1.01 | -7.82 | – | – | -8.56

IC50 [6] [nM] | Structure (SMILES) | inhibition at 1 µM (RBL-2H3 [1]) [%] | inhibition at 0.2 µM (RBL-2H3 [2]) [%] | IC50 (RBL-2H3 [3]) [nM] | selectivity ratio [4] | inhibition at 0.04 µM (RBL-2H3 [5]) [%]
– | COc1cc(NC(=O)c2ccc(OC)c(C#Cc3cc(-c4cnn(C)c4)cnc3N)c2)cc(OC)c1 | 34 | 18 | – | – | 11
– | Cc1ccc(C(=O)Nc2ccc(C(F)(F)F)cc2)cc1C#Cc1cc(-c2cnn(C)c2)cnc1N | 78.4 | 60.8 | 6.08 | 2.3 | 51.1
30 | Cc1ccc(C(=O)Nc2ccc(Cl)c(C(F)(F)F)c2)cc1C#Cc1cc(-c2cnn(C)c2)cnc1N | 170 | 145 | 13 | 13.9 | 76.1
– | COc1cc(NC(=O)c2cccc(C#Cc3cc(-c4cnn(C)c4)cnc3N)c2OC)cc(OC)c1 | 22.8 | 6.7 | – | – | 0
– | COc1cc(NC(=O)c2ccc(C)c(C#Cc3cccnc3N)c2)cc(OC)c1 | 55.9 | 3.01 | – | – | 4.26
– | Cc1ccc(C(=O)Nc2ccc3c(c2)OCCO3)cc1C#Cc1cc(-c2cnn(C)c2)cnc1N | 132 | 102 | 67.3 | – | 66.8
8 | COc1cc(NC(=O)c2ccc(C)c(C#Cc3cc(-c4cnn(C)c4)cnc3N)c2)cc(OC)c1OC | 131 | 103 | 7.43 | 2.2 | 82.6
– | COc1cc(NC(=O)c2ccc(Cl)c(C#Cc3cc(-c4cnn(C)c4)cnc3N)c2)cc(OC)c1 | 52.5 | 9.97 | – | – | 0
– | CCNc1ncc(-c2cnn(C)c2)cc1C#Cc1cc(C(=O)Nc2cc(OC)cc(OC)c2)ccc1C | 95.4 | 45.3 | – | – | 16.8
– | Cc1ccc(C(=O)Nc2ccc(Cl)c(Cl)c2)cc1C#Cc1cc(-c2cnn(C)c2)cnc1N | 65 | 40.6 | – | – | 39.8
– | COc1ccccc1NC(=O)c1ccc(C)c(C#Cc2cc(-c3cnn(C)c3)cnc2N)c1 | 73.5 | – | – | – | 10.2
– | COc1cc(NC(=O)c2ccc(C(F)(F)F)c(C#Cc3cc(-c4cnn(C)c4)cnc3N)c2)cc(OC)c1 | 15.7 | -2.84 | – | – | -3.24
– | Cc1ccc(C(=O)NC2CCCCC2)cc1C#Cc1cc(-c2cnn(C)c2)cnc1N | 63.7 | – | – | – | 0.18
– | COc1ccc(NC(=O)c2ccc(C)c(C#Cc3cc(-c4cnn(C)c4)cnc3N)c2)cc1OC | 82.2 | 49.7 | – | – | 23.7
– | FC(F)(F)c1ccc(CNc2ccc(Cc3c[nH]c4ncc(Cl)cc34)cn2)cn1 [PEXIDARTINIB] | – | – | > 1000 | – | –
24 | Cc1ccc(C(=O)Nc2cccc(OC(F)(F)F)c2)cc1C#Cc1cc(-c2cnn(C)c2)cnc1N | 150 | 138 | 7.15 | 12.9 | 81.1
– | COc1cccc(NC(=O)c2ccc(C)c(C#Cc3cc(-c4cnn(C)c4)cnc3N)c2)c1 | 125 | 80.5 | 21.9 | – | –
– | COc1cc(NC(=O)c2cccc(C#Cc3cc(-c4cnn(C)c4)cnc3N)c2F)cc(OC)c1 | 33 | 24.8 | – | – | 34
